Experimental data taken from patent US11013235B2 (priority 2015, dated 2021).
Like-named read-outs stand apart in the source and are kept apart here.

Legend:
Format in all cases: in vivo
[1] = system: Candidatus 'Liberibacter asiaticus'; details: spraying every 15 days, 12 months after treatment, Citrus sinensis with HLB
Alternaria solani = assay: Control of Alternaria solani disease in tomato (As-SI); details: 1 μM spraying every 24 hours for one week, water control 68
In short: (§1)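 Plants were inoculated first, then sprayed with compound at 1 μM every 24 h for one week, with 50 plants per treatment and water controls. Read-outs: lesion diameter for Botrytis, mortality for Nocardia, % symptomatic leaves for Alternaria.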

Nocardia sp = assay: Control of Nocardia sp disease in tobacco (N-Nt); details: 1 μM spraying every 24 hours for one week, water control 58
In short: as §1

Botrytis cinerea [2] = assay: Control of Botrytis cinerea disease in tobacco (Bc-Nt); details: 1 μM spraying every 24 hours for one week, water control 6.7
In short: as §1

Phytophthora parasitica = assay: Control of Phytophthora parasitica disease in tobacco (Pp-Nt); details: 1 μM spraying every 24 hours for one week, water control 91
Meloidogyne incognita = assay: Nematode control, nodules per plant: Meloidogyne incognita; details: 1 μM foliar application every 5 days, evaluation 35 days after, control 34
In short: (§2)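 Each compound was dissolved in ethanol, then diluted with water to 1 μM. Only the leaves were sprayed, with applications repeated every 5 days on ten plants per treatment. After 35 days, nodules per plant were quantified.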

Radopholus similis = assay: Nematode control, nodules per plant: Radopholus similis; details: 1 μM foliar application every 5 days, evaluation 35 days after, control 45
In short: as §2

Rhizoctonia solani [3] = assay: Control of Rhizoctonia solani disease in tomato (Rs-SI); details: 1 μM spraying every 24 hours for one week, water control 96
Botrytis cinerea [4] = assay: Control of Botrytis cinerea disease in Arabidopsis (Bc-At); details: 1 μM spraying every 24 hours for one week, water control 8.7
In short: as §1

Botrytis cinerea [5] = assay: Control of Botrytis cinerea disease in tomato (Bc-SI); details: 1 μM spraying every 24 hours for one week, water control 7.4
In short: as §1

Rhizoctonia solani [6] = assay: Control of Rhizoctonia solani disease in tobacco (Rs-Nt); details: 1 μM spraying every 24 hours for one week, water control 87
Pratylenchus coffeae = assay: Nematode control, nodules per plant: Pratylenchus coffeae; details: 1 μM foliar application every 5 days, evaluation 35 days after, control 42
In short: as §2

SMILES | Titers of the bacterium ([1]; 0.001 μM) [copies per reaction] | Titers of the bacterium ([1]; 0.01 μM) [copies per reaction] | Titers of the bacterium ([1]; 1 μM) [copies per reaction] | Titers of the bacterium ([1]; 5 μM) [copies per reaction] | Titers of the bacterium ([1]; 10 μM) [copies per reaction] | As-SI: percentage of leaves with the disease symptoms (Alternaria solani) [%] | N-Nt: percentage of mortality (Nocardia sp) [%] | Bc-Nt: mean of the diameter of the lesion (Botrytis cinerea [2]) [mm] | Pp-Nt: percentage of mortality (Phytophthora parasitica) [%] | Mi: number of nodules per plant (Meloidogyne incognita) | Rs: number of nodules per plant (Radopholus similis) | Rs-SI: percentage of mortality (Rhizoctonia solani [3]) [%] | Bc-At: mean of the diameter of the lesion (Botrytis cinerea [4]) [mm] | Bc-SI: mean of the diameter of the lesion (Botrytis cinerea [5]) [mm] | Rs-Nt: percentage of mortality (Rhizoctonia solani [6]) [%] | Pc: number of nodules per plant (Pratylenchus coffeae)
CNC(=O)c1ccc2c(c1)NC(CC(=O)NC(CO)CO)CO2 (centres unmarked) [VA, 3-{[(1,3-dihydroxypropan-2-yl)carbamoyl]methyl}-N-methyl-3,4-dihydro-2H-1,4-benzoxazine-6-carboxamide] | 524 | 1 | 5 | 54 | 5478 | 3 | 2 | 1.5 | 1 | 4 | 1 | 2 | 2.4 | 0.8 | 4 | 2
CNC(=O)c1ccc2c(c1)N(C)C(CC(=O)NC(CO)CO)CO2 (centres unmarked) [VB, 3-{[(1,3-dihydroxypropan-2-yl)carbamoyl]methyl}-N,4-dimethyl-3,4-dihydro-2H-1,4-benzoxazine-6-carboxamide] | 598 | 9 | 2 | 98 | 9854 | 8 | 1 | 0.9 | 0 | 0 | 0 | 2 | 0.7 | 1.2 | 0 | 1
O=C(CC1COc2ccc(C(=O)Nc3ccccc3)cc2N1)NC(CO)CO (centres unmarked) [VC, 3-{[(1,3-dihydroxypropan-2-yl)carbamoyl]methyl}-N-phenyl-3,4-dihydro-2H-1,4-benzoxazine-6-carboxamide] | 432 | 0 | 4 | 43 | 6524 | 7 | 0 | 0.3 | 0 | 0 | 0 | 0 | 1.2 | 0.8 | 0 | 0
O=C(CC1COc2ccc(C(=O)NC3CCCCC3)cc2N1)NC(CO)CO (centres unmarked) [VE, N-cyclohexyl-3-{[(1,3-dihydroxypropan-2-yl)carbamoyl]methyl}-3,4-dihydro-2H-1,4-benzoxazine-6-carboxamide] | 587 | 0 | 0 | 87 | 4587 | 7 | 0 | 0.9 | 3 | 0 | 3 | 1 | 0.5 | 0.8 | 0 | 0
CN1c2cc(C(=O)NC3CCCCC3)ccc2OCC1CC(=O)NC(CO)CO (centres unmarked) [VF, N-cyclohexyl-3-{[(1,3-dihydroxypropan-2-yl)carbamoyl]methyl}-4-methyl-3,4-dihydro-2H-1,4-benzoxazine-6-carboxamide] | 985 | 1 | 0 | 98 | 2365 | 1 | 1 | 1.5 | 1 | 2 | 1 | 3 | 1.5 | 2.5 | 2 | 1
O=C(CC1COc2ccc(C(=O)NC3CCCC3)cc2N1)NC(CO)CO (centres unmarked) [VG, N-cyclopentyl-3-{[(1,3-dihydroxypropan-2-yl)carbamoyl]methyl}-3,4-dihydro-2H-1,4-benzoxazine-6-carboxamide] | 657 | 8 | 0 | 67 | 3654 | 1 | 1 | 1.5 | 1 | 2 | 1 | 3 | 2.4 | 0.8 | 2 | 1
CN1c2cc(C(=O)NC3CCCC3)ccc2OCC1CC(=O)NC(CO)CO (centres unmarked) [VH, N-cyclopentyl-3-{[(1,3-dihydroxypropan-2-yl)carbamoyl]methyl}-4-methyl-3,4-dihydro-2H-1,4-benzoxazine-6-carboxamide] | 658 | 4 | 0 | 68 | 6541 | 2 | 1 | 0.9 | 2 | 3 | 2 | 2 | 0.7 | 1.2 | 3 | 1
CN1c2cc(C(N)=O)ccc2OCC1CC(=O)NC(CO)CO (centres unmarked) [VJ, 3-{[(1,3-dihydroxypropan-2-yl)carbamoyl]methyl}-4-methyl-3,4-dihydro-2H-1,4-benzoxazine-6-carboxamide] | 456 | 0 | 0 | 56 | 1351 | 8 | 1 | 0.3 | 0 | 0 | 0 | 2 | 1.2 | 0.8 | 0 | 14
